This note sets out measurements from US8183262B2, “Pyridine derivatives as mGluR2 antagonists” (Hoffmann-La Roche Inc., priority 2007, dated 2012).

The structures appear in SMILES notation. Where only a bound is given, the exact number is not on record here.

Turning to `Cc1cc(-c2ccc(C(F)(F)F)cc2)nc(-c2cccc(-c3cccc(S(N)(=O)=O)c3)n2)c1` [Example 310, 3-[4′-Methyl-6′-(4-trifluoromethyl-phenyl)-[2,2′]bipyridinyl-6-yl]-benzenesulfonamide], the melting point (commonly the temperature of the solid-liquid transition) is 229 °C.

Consider `Cc1nc(-c2cn(-c3cc(-c4ccc(C(F)(F)F)cc4)cc(C(F)(F)F)n3)cn2)sc1S(N)(=O)=O` [Example 312, 4-Methyl-2-{1-[6-trifluoromethyl-4-(4-trifluoromethyl-phenyl)-pyridin-2-yl]-1H-imidazol-4-yl}-thiazole-5-sulfonic acid amide], for which the melting point was 170 °C (dec.).

Regarding `NS(=O)(=O)c1ccc(-c2cn(-c3cc(-c4ccc(C(F)(F)F)cc4)cc(C(F)(F)F)n3)cn2)s1` [Example 314, 5-{1-[6-Trifluoromethyl-4-(4-trifluoromethyl-phenyl)-pyridin-2-yl]-1H-imidazol-4-yl}-thiophene-2-sulfonic acid amide], the melting point is 237 °C (dec.).

Regarding `Cc1cc(-c2ccc(C(F)(F)F)cc2)cc(-c2ccnc(-c3ccc(S(N)(=O)=O)s3)n2)n1` [Example 315, 5-{4-[6-Methyl-4-(4-trifluoromethyl-phenyl)-pyridin-2-yl]-pyrimidin-2-yl}-thiophene-2-sulfonic acid amide], the melting point was above 250 °C.

`Cc1cc(-c2ccc(C(F)(F)F)cc2)cc(-c2ccnc(-c3ccc(S(N)(=O)=O)s3)c2)n1` [Example 316, 5-[6-Methyl-4-(4-trifluoromethyl-phenyl)-[2,4′]bipyridinyl-2′-yl]-thiophene-2-sulfonic acid amide] displayed a melting point above 250 °C.

As to `Cc1cc(-c2ccc(C(F)(F)F)cc2)cc(-c2cccc(-c3ccc(S(N)(=O)=O)s3)n2)n1` [Example 317, 5-[6′-Methyl-4′-(4-trifluoromethyl-phenyl)-[2,2′]bipyridinyl-6-yl]-thiophene-2-sulfonic acid amide], the melting point was 243 °C (dec.).

As for `CC(C)(C)NS(=O)(=O)c1ccc(-c2cc(-c3cc(C(F)(F)F)cc(-c4ccc(C(F)(F)F)cc4)n3)ccn2)s1` [Example 319, 5-[4-Trifluoromethyl-6-(4-trifluoromethyl-phenyl)-[2,4′]bipyridinyl-2′-yl]-thiophene-2-sulfonic acid tert-butylamide], the melting point turned out to be 220 °C.

For the molecule `NS(=O)(=O)c1ccc(-c2cc(-c3cc(C(F)(F)F)cc(-c4ccc(C(F)(F)F)cc4)n3)ccn2)s1` [Example 321, 5-[4-Trifluoromethyl-6-(4-trifluoromethyl-phenyl)-[2,4′]bipyridinyl-2′-yl]-thiophene-2-sulfonic acid amide], the melting point is 97 °C (dec.).

For the molecule `Cc1cc(-c2ccc(C(F)(F)F)cc2)nc(-c2ccnc(-c3ccc(S(N)(=O)=O)s3)c2)c1` [Example 323, 5-[4-Methyl-6-(4-trifluoromethyl-phenyl)-[2,4′]bipyridinyl-2′-yl]-thiophene-2-sulfonic acid amide], the melting point is 228 °C (dec.).

On to `Cc1cc(-c2ccc(C(F)(F)F)cc2)cc(-c2nc(-c3ccc(S(=O)(=O)NC(C)(C)C)s3)cs2)n1` [Example 324, 5-{2-[6-Methyl-4-(4-trifluoromethyl-phenyl)-pyridin-2-yl]-thiazol-4-yl}-thiophene-2-sulfonic acid tert-butylamide], for which the melting point was found to be 171 °C.

With `Cc1cc(-c2ccc(C(F)(F)F)cc2)cc(-c2ccnc(-c3cccc(N)c3)n2)n1` [Example 326, 3-{4-[6-Methyl-4-(4-trifluoromethyl-phenyl)-pyridin-2-yl]-pyrimidin-2-yl}-phenylamine], the melting point is 167 °C.

Turning to `Cc1cc(-c2ccc(C(F)(F)F)cc2)cc(-c2cccc(-c3cccc(N)c3)n2)n1` [Example 327, 3-[6′-Methyl-4′-(4-trifluoromethyl-phenyl)-[2,2′]bipyridinyl-6-yl]-phenylamine], the melting point was determined as 167 °C.

Turning to `COc1cc(-c2cc(C)nc(-c3ccnc(-c4cccc(S(=O)(=O)NC(C)(C)C)c4)c3)c2)ccc1C(F)(F)F` [Example 336, N-tert-Butyl-3-[4-(3-methoxy-4-trifluoromethyl-phenyl)-6-methyl-[2,4′]bipyridinyl-2′-yl]-benzenesulfonamide], the melting point is 189 °C.

For `COc1cc(-c2cc(C)nc(-c3ccnc(-c4ccc(S(=O)(=O)NC(C)(C)C)s4)c3)c2)ccc1C(F)(F)F` [Example 339, 5-[4-(3-Methoxy-4-trifluoromethyl-phenyl)-6-methyl-[2,4′]bipyridinyl-2′-yl]-thiophene-2-sulfonic acid tert-butylamide], the melting point is 209 °C (dec.).

With `COc1cc(-c2cc(C)nc(-c3ccnc(-c4cccc(S(N)(=O)=O)c4)c3)c2)ccc1C(F)(F)F` [Example 340, 3-[4-(3-Methoxy-4-trifluoromethyl-phenyl)-6-methyl-[2,4′]bipyridinyl-2′-yl]-benzenesulfonamide], the melting point is 233 °C (dec.).

As to `COc1cc(-c2cc(C)nc(-c3ccnc(-c4ccc(S(N)(=O)=O)s4)c3)c2)ccc1C(F)(F)F` [Example 341, 5-[4-(3-Methoxy-4-trifluoromethyl-phenyl)-6-methyl-[2,4′]bipyridinyl-2′-yl]-thiophene-2-sulfonic acid amide], the melting point was 261 °C (dec.).

In turn, `Cc1cc(-c2ccc(C(F)(F)F)cc2)cc(-c2cccc(-c3csc(N)n3)c2)n1` [Example 342, 4-{3-[6-Methyl-4-(4-trifluoromethyl-phenyl)-pyridin-2-yl]-phenyl}-thiazol-2-ylamine] came in with a melting point above 250 °C.

For the molecule `Cc1cc(-c2ccc(C(F)(F)F)cc2)cc(-c2cccc(-c3csc(NS(=O)(=O)NC(=O)OC(C)(C)C)n3)c2)n1` [Example 344, N-(tert-Butoxycarbonyl)-N′-(4-{3-[6-methyl-4-(4-trifluoromethyl-phenyl)-pyridin-2-yl]-phenyl}-thiazol-2-yl)-sulfamide], the melting point was 152 °C (dec.).

Take `Cc1cc(-c2ccc(C(F)(F)F)cc2)cc(-c2ccnc(-c3cccc(S(=O)(=O)N4CCSCC4)c3)c2)n1` [Example 347, 6-Methyl-2′-[3-(thiomorpholine-4-sulfonyl)-phenyl]-4-(4-trifluoromethyl-phenyl)-[2,4′]bipyridinyl]: the melting point is 156 °C (dec.).

For `Cc1cc(-c2ccc(C(F)(F)F)cc2)cc(-c2ccnc(-c3cccc(S(=O)(=O)NCCO)c3)c2)n1` [Example 348, N-(2-Hydroxy-ethyl)-3-[6-methyl-4-(4-trifluoromethyl-phenyl)-[2,4′]bipyridinyl-2′-yl]-benzenesulfonamide], the melting point was 103 °C (dec.).

Molecule `Cc1cc(-c2ccc(C(F)(F)F)cc2)cc(-c2ccnc(-c3cccc(S(=O)(=O)NC(C)(C)CO)c3)c2)n1` [Example 349, N-(2-Hydroxy-1,1-dimethyl-ethyl)-3-[6-methyl-4-(4-trifluoromethyl-phenyl)-[2,4′]bipyridinyl-2′-yl]-benzenesulfonamide] yielded a melting point of 92 °C.

`Cc1cc(-c2ccc(C(F)(F)F)cc2)cc(-c2cccc(-c3cccc(NS(=O)(=O)N4CCOCC4)c3)n2)n1` [Example 351, Morpholine-4-sulfonic acid {3-[6′-methyl-4′-(4-trifluoromethyl-phenyl)-[2,2′]bipyridinyl-6-yl]-phenyl}-amide] returned a melting point of 191 °C.

For the molecule `Cc1cc(-c2ccc(C(F)(F)F)cc2)cc(-c2cccc(-c3ccnc(N)c3)n2)n1` [Example 358, 6-Methyl-4-(4-trifluoromethyl-phenyl)-[2,2′;6′,4″]terpyridin-2″-ylamine], the melting point stood at 160 °C.

`Cc1cc(-c2ccc(C(F)(F)F)cc2)cc(-c2cccc(-c3cccc(S(=O)(=O)NCCO)c3)n2)n1` [Example 359, N-(2-Hydroxy-ethyl)-3-[6′-methyl-4′-(4-trifluoromethyl-phenyl)-[2,2′]bipyridinyl-6-yl]-benzenesulfonamide]: the melting point is 110 °C (dec.).

`Cc1cc(-c2ccc(C(F)(F)F)cc2)nc(-c2ccnc(-c3cccc(N)c3)c2)c1` [Example 361, 3-[4-Methyl-6-(4-trifluoromethyl-phenyl)-[2,4]bipyridinyl-2′-yl]-phenylamine]: the melting point was 87 °C (dec.).

`CC(C)(C)NS(=O)(=O)c1cccc(-c2cccc(-c3nc(-c4ccc(C(F)(F)F)cc4)cc(C(F)(F)F)n3)n2)c1` [Example 362, N-tert-Butyl-3-{6-[4-trifluoromethyl-6-(4-trifluoromethyl-phenyl)-pyrimidin-2-yl]-pyridin-2-yl}-benzenesulfonamide] displayed a melting point of 75 °C.

As to `Cc1cc(-c2ccc(C(F)(F)F)cc2)cc(-c2cccc(-c3cccc(S(=O)(=O)NC(C)(C)CO)c3)n2)n1` [Example 363, N-(2-Hydroxy-1,1-dimethyl-ethyl)-3-[6′-methyl-4′-(4-trifluoromethyl-phenyl)-[2,2′]bipyridinyl-6-yl]-benzenesulfonamide], the melting point is 171 °C.

With `NS(=O)(=O)c1cccc(-c2cccc(-c3nc(-c4ccc(C(F)(F)F)cc4)cc(C(F)(F)F)n3)n2)c1` [Example 364, 3-{6-[4-Trifluoromethyl-6-(4-trifluoromethyl-phenyl)-pyrimidin-2-yl]-pyridin-2-yl}-benzenesulfonamide], the melting point is 244 °C (dec.).

In the case of `Cc1cc(-c2ccc(C(F)(F)F)cc2)cc(-c2cccc(-c3cccc(S(=O)(=O)N4CCS(=O)(=O)CC4)c3)n2)n1` [Example 368, 6′-[3-(1,1-Dioxo-1λ6-thiomorpholine-4-sulfonyl)-phenyl]-6-methyl-4-(4-trifluoromethyl-phenyl)-[2,2′]bipyridinyl], the melting point was 230 °C (dec.).

In turn, `Cc1cc(-c2ccc(C(F)(F)F)cc2)cc(-c2cccc(-c3cccc(S(=O)(=O)N4CCCC4)c3)n2)n1` [Example 369, 6-Methyl-6′-[3-(pyrrolidine-1-sulfonyl)-phenyl]-4-(4-trifluoromethyl-phenyl)-[2,2′]bipyridinyl] showed a melting point of 174 °C.

In the case of `Cc1cc(-c2ccc(C(F)(F)F)cc2)cc(-c2cccc(-c3cccc(S(=O)(=O)N4CCN(C)CC4)c3)n2)n1` [Example 370, 6-Methyl-6′-[3-(4-methyl-piperazine-1-sulfonyl)-phenyl]-4-(4-trifluoromethyl-phenyl)-[2,2′]bipyridinyl], the melting point is 167 °C (dec.).
